This is an account of results in patent US12286429B2, “5-oxo-1,2,3,5,8,8a-hexahydroindolizine-3-carboxamide derivatives useful as a factor XIa inhibitors” (Janssen Pharmaceutica NV, priority 2021, dated 2025).

In one assay the target is human plasma kallikrein (Homo sapiens, UniProt P03952). As to the kind of experiment: Kallikrein inhibition assay utilizing a quenched AMC peptide substrate (FLINT). The class given is biochemical. To be noted: 11-point, 3-fold serial dilution, top 1 μM; 30 min preincubation; 2 nM kallikrein; 50 μM Z-Gly-Pro-Arg-AMC; kinetic reads over 30 min. Put shortly:
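Human plasma kallikrein (2 nM final) was pre-incubated 30 min at room temperature with compound (11-point 3-fold series, top 1 μM, 2% DMSO) in Tris pH 7.5, NaCl, CaCl2, BSA, CHAPS buffer. Reaction started with 50 μM Z-Gly-Pro-Arg-AMC (KM 40 μM), and fluorescence (340/440 nm) was read kinetically over 30 min. IC50 came from a 4-parameter logistic fit.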

A further assay concerns the target Factor XIa (Homo sapiens, UniProt P03951). As to the kind of experiment: Factor XIa inhibition assay utilizing a fluorophore-quencher pair peptide substrate (FLINT). The class given is biochemical. To be noted: 11-point, 3-fold serial dilution, top 100 nM; 30 min preincubation; 15 μM 5Fam-KLTRAETV-K5Tamra substrate; kinetic reads over 30 min; read-out: FXIa Inhibition IC50. Summed up:
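FXIa ([…]) preincubated 30 min with compound (11-point, 3-fold, top 100 nM, 2% DMSO) in Tris pH 7.5, NaCl, CaCl2, BSA, CHAPS; 15 μM 5Fam-KLTRAETV-K5Tamra substrate then added. Fluorescence (485/520 nm) read kinetically over 30 min at room temperature; IC50 by 4-parameter fit.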

Sequence of human plasma kallikrein (P03952 391-638 limits assumed): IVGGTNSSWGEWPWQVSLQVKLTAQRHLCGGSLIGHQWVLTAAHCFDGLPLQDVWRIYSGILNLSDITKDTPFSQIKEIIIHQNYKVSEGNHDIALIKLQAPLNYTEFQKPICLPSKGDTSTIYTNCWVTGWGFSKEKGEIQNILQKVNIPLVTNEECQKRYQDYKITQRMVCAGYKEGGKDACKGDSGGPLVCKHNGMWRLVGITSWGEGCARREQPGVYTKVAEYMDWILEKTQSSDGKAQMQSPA
Sequence of human plasma kallikrein (P03952 20-390 partner limits assumed): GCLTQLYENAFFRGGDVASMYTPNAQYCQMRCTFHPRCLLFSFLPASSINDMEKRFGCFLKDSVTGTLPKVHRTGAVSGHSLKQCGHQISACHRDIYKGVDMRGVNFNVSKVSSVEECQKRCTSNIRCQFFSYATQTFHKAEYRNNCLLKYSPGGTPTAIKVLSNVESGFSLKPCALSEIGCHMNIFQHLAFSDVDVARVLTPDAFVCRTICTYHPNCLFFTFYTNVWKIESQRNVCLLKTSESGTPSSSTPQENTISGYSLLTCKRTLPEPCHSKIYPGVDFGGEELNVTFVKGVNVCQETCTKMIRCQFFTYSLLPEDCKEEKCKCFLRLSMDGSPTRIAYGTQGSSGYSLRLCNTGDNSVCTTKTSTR
Sequence of Factor XIa (P03951 388-625 limits assumed): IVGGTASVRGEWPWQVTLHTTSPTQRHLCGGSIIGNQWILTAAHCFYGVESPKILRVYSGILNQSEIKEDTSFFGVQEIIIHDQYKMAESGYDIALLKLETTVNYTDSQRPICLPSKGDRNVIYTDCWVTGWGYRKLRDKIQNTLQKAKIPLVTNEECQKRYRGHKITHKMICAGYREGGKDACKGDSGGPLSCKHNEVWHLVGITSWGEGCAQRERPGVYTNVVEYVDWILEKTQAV
Sequence of Factor XIa (P03951 19-387 partner limits assumed): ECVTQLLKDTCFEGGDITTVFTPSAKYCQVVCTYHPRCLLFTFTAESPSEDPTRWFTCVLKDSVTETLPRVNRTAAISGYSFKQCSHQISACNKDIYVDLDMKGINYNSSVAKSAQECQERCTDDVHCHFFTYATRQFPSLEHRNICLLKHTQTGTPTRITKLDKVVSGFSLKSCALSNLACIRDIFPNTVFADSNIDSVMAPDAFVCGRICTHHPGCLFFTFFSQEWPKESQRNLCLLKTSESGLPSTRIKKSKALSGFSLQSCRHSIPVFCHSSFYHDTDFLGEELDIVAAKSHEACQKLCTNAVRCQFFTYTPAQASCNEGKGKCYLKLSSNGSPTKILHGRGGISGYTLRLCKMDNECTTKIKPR

A word on the IC50: it is the concentration that gives 50% inhibition. Consider `O=C(Nc1ccc(-c2nc(=O)o[nH]2)c(F)c1)[C@@H]1CC[C@H]2CC(c3c(-n4cnnn4)ccc(Cl)c3F)=CC(=O)N21` (single isomer, unassigned) [ID No. 36, (3S,8aS*)-7-(3-Chloro-2-fluoro-6-(1H-tetrazol-1-yl)phenyl)-N-(3-fluoro-4-(5-oxo-2,5-dihydro-1,2,4-oxadiazol-3-yl)phenyl)-5-oxo-1,2,3,5,8,8a-_hexahydroindolizine-3-carboxamide], for which the IC50 against human plasma kallikrein came out at 8.8 nM; at Factor XIa, 0.4 nM.

Consider `Cc1nc(-c2ccc(NC(=O)[C@@H]3CC[C@@H]4CC(c5c(-n6cnnn6)ccc(Cl)c5F)=CC(=O)N43)cc2)no1` (single isomer, unassigned) [ID No. 50], for which the IC50 against human plasma kallikrein was 57 nM; at Factor XIa, 31.8 nM.

In the case of `O=C(O)c1ccc(NC(=O)[C@@H]2CCC3CC(c4c(-n5cnnn5)ccc(Cl)c4F)=CC(=O)N32)cc1F` (single isomer, unassigned) [ID No. 51, (3S,8aS*)-4-[[7-[3-Chloro-2-fluoro-6-(tetrazol-1-yl)phenyl]-5-oxo-2,3,8,8a-tetrahydro-1H-indolizine-3-carbonyl]amino]-2-fluoro-benzoic acid], the IC50 against human plasma kallikrein came out at 149 nM; on Factor XIa, 2.5 nM.

`O=C(O)c1ccc(NC(=O)[C@@H]2CC[C@@H]3CC(c4c(-n5cnnn5)ccc(Cl)c4F)=CC(=O)N32)cc1F` (single isomer, unassigned) [ID No. 52, (3S,8R*)-4-[[7-[3-Chloro-2-fluoro-6-(tetrazol-1-yl)phenyl]-5-oxo-2,3,8,8a-tetrahydro-1H-indolizine-3-carbonyl]amino]-2-fluoro-benzoic acid]: the half-inhibitory concentration (IC50) against human plasma kallikrein is 70.8 nM; at Factor XIa, 0.9 nM.

`CC1(C)C[C@@H](C(=O)Nc2ccc3nccnc3c2)N2C(=O)C=C(c3c(-n4cnnn4)ccc(Cl)c3F)CC21` (single isomer, unassigned) [ID No. 59, (3S,8aR*)-7-[3-Chloro-2-fluoro-6-(tetrazol-1-yl)phenyl]-1,1-dimethyl-5-oxo-N-quinoxalin-6-yl-2,3,8,8a-tetrahydroindolizine-3-carboxamide]: the 50% inhibitory concentration (IC50) against human plasma kallikrein was found to be 38.8 nM; on Factor XIa, 82.9 nM.

As for `Nc1noc2cc(NC(=O)[C@@H]3CCC4CC(c5c(-n6cnnn6)ccc(Cl)c5F)=CC(=O)N43)ccc12` (single isomer, unassigned) [ID No. 60, (3S,8aR*)—N-(3-Amino-1,2-benzoxazol-6-yl)-7-[3-chloro-2-fluoro-6-(tetrazol-1-yl)phenyl]-5-oxo-2,3,8,8a-tetrahydro-1H-indolizine-3-carboxamide], the 50% inhibitory concentration (IC50) at human plasma kallikrein is 29.7 nM; at Factor XIa it was 6.7 nM.

As to `Nc1noc2cc(NC(=O)[C@@H]3CCC4CC(c5c(-n6cnnn6)ccc(Cl)c5F)=CC(=O)N43)ccc12` (single isomer, unassigned) [ID No. 61, (3S,8aS*)—N-(3-Amino-1,2-benzoxazol-6-yl)-7-[3-chloro-2-fluoro-6-(tetrazol-1-yl)phenyl]-5-oxo-2,3,8,8a-tetrahydro-1H-indolizine-3-carboxamide], the IC50 is 52.6 nM at human plasma kallikrein and 8.9 nM on Factor XIa.

Consider `CC1(C)C[C@@H](C(=O)Nc2ccc3nccnc3c2)N2C(=O)C=C(c3c(-n4cnnn4)ccc(Cl)c3F)CC21` (single isomer, unassigned) [ID No. 62, (3S,8aS*)-7-[3-Chloro-2-fluoro-6-(tetrazol-1-yl)phenyl]-1,1-dimethyl-5-oxo-N-quinoxalin-6-yl-2,3,8,8a-tetrahydroindolizine-3-carboxamide], for which the IC50 at human plasma kallikrein worked out at 17.2 nM; at Factor XIa, 13.3 nM.

Consider `O=C(Nc1ccc(-c2nc(=O)o[nH]2)cc1)[C@@H]1CCC2CC(c3c(-n4cnnn4)ccc(Cl)c3F)=CC(=O)N21` (single isomer, unassigned) [ID No. 63, (3S,8aR*)-7-[3-Chloro-2-fluoro-6-(tetrazol-1-yl)phenyl]-5-oxo-N-[4-(5-oxo-2H-1,2,4-oxadiazol-3-yl)phenyl]-2,3,8,8a-tetrahydro-1H-indolizine-3-carboxamide], for which the values for the concentration for half-maximal inhibition (IC50) at human plasma kallikrein and on Factor XIa were 20.3 nM and 0.6 nM, respectively.

For the molecule `O=C(Nc1ccc(-c2nnn[nH]2)cc1)[C@@H]1CC[C@H]2CC(c3c(-n4cnnn4)ccc(Cl)c3F)=CC(=O)N21` (single isomer, unassigned) [ID No. 65, (3S,8aS*)-7-[3-Chloro-2-fluoro-6-(tetrazol-1-yl)phenyl]-5-oxo-N-[4-(1H-tetrazol-5-yl)phenyl]-2,3,8,8a-tetrahydro-1_H-indolizine-3-carboxamide], the results for the concentration for half-maximal inhibition (IC50) against human plasma kallikrein and on Factor XIa were 36.6 nM and 1.9 nM, respectively.

Consider `O=C(Nc1ccc(-c2nnn[nH]2)cc1)[C@@H]1CCC2CC(c3c(-n4cnnn4)ccc(Cl)c3F)=CC(=O)N21` (single isomer, unassigned) [ID No. 66, (3S,8aR*)-7-[3-Chloro-2-fluoro-6-(tetrazol-1-yl)phenyl]-5-oxo-N-[4-(1H-tetrazol-5-yl)phenyl]-2,3,8,8a-tetrahydro-1H-indolizine-3-carboxamide], for which the results for the concentration for half-maximal inhibition (IC50) at human plasma kallikrein and on Factor XIa were 19.2 nM and 0.8 nM, respectively.

Take `C[C@H]1C[C@@H](C(=O)Nc2ccc3nccnc3c2)N2C(=O)C=C(c3c(-n4cnnn4)ccc(Cl)c3F)C[C@@H]12` (single isomer, unassigned) [ID No. 79, (1S*,3S,8aS*)-7-[3-Chloro-2-fluoro-6-(tetrazol-1-yl)phenyl]-1-methyl-5-oxo-N-quinoxalin-6-yl-2,3,8,8a-tetrahydro-1H-indolizine-3-carboxamide]: the IC50 on human plasma kallikrein was 7.5 nM; at Factor XIa, 3.9 nM.

With `C[C@H]1C[C@@H](C(=O)Nc2ccc3nccnc3c2)N2C(=O)C=C(c3c(-n4cnnn4)ccc(Cl)c3F)C[C@H]12` (single isomer, unassigned) [ID No. 80, (1S*,3S,8aR*)-7-[3-Chloro-2-fluoro-6-(tetrazol-1-yl)phenyl]-1-methyl-5-oxo-N-quinoxalin-6-yl-2,3,8,8a-tetrahydro-1H-indolizine-3-carboxamide], the half-maximal inhibitory concentration (IC50) on human plasma kallikrein was determined as 59.5 nM; at Factor XIa, 45.9 nM.

As for `Nc1ccc2cc(NC(=O)[C@@H]3CC[C@@H]4CC(c5c(-n6cnnn6)ccc(Cl)c5F)=CC(=O)N43)ccc2n1` [ID No. 6, (3S,8aR)—N-(2-Aminoquinolin-6-yl)-7-(3-chloro-2-fluoro-6-(1H-tetrazol-1-yl)phenyl)-5-oxo-1,2,3,5,8,8a-hexahydroindolizine-3-carboxamide], the IC50 came to 14.3 nM on human plasma kallikrein and 8 nM at Factor XIa.

For `CC1(C)C(=O)Nc2ccc(NC(=O)[C@@H]3CC[C@@H]4CC(c5c(-n6cnnn6)ccc(Cl)c5F)=CC(=O)N43)cc21` [ID No. 7, (3S,8aR)-7-(3-Chloro-2-fluoro-6-(1H-tetrazol-1-yl)phenyl)-N-(3,3-dimethyl-2-oxoindolin-5-yl)-5-oxo-1,2,3,5,8,8a-hexahydroindolizine-3-carboxamide], the concentration for half-maximal inhibition (IC50) amounted to 131 nM at human plasma kallikrein and 65 nM at Factor XIa.

For `O=C(Nc1ccc2c(c1)C1(CCCC1)C(=O)N2)[C@@H]1CC[C@@H]2CC(c3c(-n4cnnn4)ccc(Cl)c3F)=CC(=O)N21` [ID No. 8, (3S,8aR)-7-(3-Chloro-2-fluoro-6-(1H-tetrazol-1-yl)phenyl)-5-oxo-N-(2′-oxospiro[cyclopentane-1,3′-indolin]-5′-yl)-1,2,3,5,8,8a-hexahydroindolizine-3-carboxamide], the concentration for half-maximal inhibition (IC50) turned out to be 178 nM at human plasma kallikrein and 62.1 nM on Factor XIa.

As for `O=C(Nc1ccc2nccc(O)c2c1)[C@@H]1CC[C@@H]2CC(c3c(-n4cnnn4)ccc(Cl)c3F)=CC(=O)N21` [ID No. 9, (3S,8aR)-7-(3-Chloro-2-fluoro-6-(1H-tetrazol-1-yl)phenyl)-N-(4-hydroxyquinolin-6-yl)-5-oxo-1,2,3,5,8,8a-hexahydroindolizine-3-carboxamide], the IC50 against human plasma kallikrein came to 20.2 nM; at Factor XIa, 16.6 nM.

Regarding `O=C(Nc1ccc2ncc(F)cc2c1)[C@@H]1CC[C@@H]2CC(c3c(-n4cnnn4)ccc(Cl)c3F)=CC(=O)N21` [ID No. 10, (3S,8aR)-7-(3-Chloro-2-fluoro-6-(1H-tetrazol-1-yl)phenyl)-N-(3-fluoroquinolin-6-yl)-5-oxo-1,2,3,5,8,8a-hexahydroindolizine-3-carboxamide], the IC50 was 22.5 nM at human plasma kallikrein and 10.8 nM at Factor XIa.

As for `CN(C)c1ccc2cc(NC(=O)[C@@H]3CC[C@@H]4CC(c5c(-n6cnnn6)ccc(Cl)c5F)=CC(=O)N43)ccc2n1` [ID No. 11, (3S,8aR)-7-(3-Chloro-2-fluoro-6-(1H-tetrazol-1-yl)phenyl)-N-(2-(dimethylamino)quinolin-6-yl)-5-oxo-1,2,3,5,8,8a-hexahydroindolizine-3-carboxamide], the IC50 is 66.2 nM against human plasma kallikrein and 38.8 nM on Factor XIa.

Take `O=C1Cc2cc(NC(=O)[C@@H]3CC[C@@H]4CC(c5c(-n6cnnn6)ccc(Cl)c5F)=CC(=O)N43)ccc2N1` [ID No. 12, (3S,8aR)-7-(3-Chloro-2-fluoro-6-(1H-tetrazol-1-yl)phenyl)-5-oxo-N-(2-oxoindolin-5-yl)-1,2,3,5,8,8a-hexahydroindolizine-3-carboxamide]: the IC50 came out at 71.7 nM on human plasma kallikrein and 18.2 nM on Factor XIa.

Consider `O=C1CCc2cc(NC(=O)[C@@H]3CC[C@@H]4CC(c5c(-n6cnnn6)ccc(Cl)c5F)=CC(=O)N43)ccc2N1` [ID No. 13], for which the concentration for half-maximal inhibition (IC50) against human plasma kallikrein was 68.4 nM; at Factor XIa it was 12.9 nM.
